In US8039496B2, “Therapeutic compounds” (Allergan, Inc., priority 2007, dated 2011):
Like-named read-outs stand apart in the source and are kept apart here.

Legend:
[1] = test system: normotensive dogs; test: Ocular surface hyperemia in normotensive dogs; format: in vivo; set-up: scale not given here; details: once daily for 5 days
Description: (§1) U.S. Pat. No. 7,091,231 describes the methods used for these in vivo tests. 5-{3-[1R,2S,3R,5R)-5-Chloro-2-(3,5-dichloro-phenoxymethyl)-3-hydroxy-cyclopentyl]-propyl}-thiophene-2-carboxylic acid was tested at multiple concentrations in normotensive dogs, dosing once daily for 5 days. At 0.1%, the maximum intraocular pressure (IOP) decrease from baseline was 7.5 mmHg (48%) at 30 h; the maximum ocular surface hyperemia (OSH) score was 2.75 at 26 h. At 0.01%, the maximum IOP decrease from baseline was 7.5 mmHg (43%) at 76 h; the maximum OSH score was 2.0 at 26 h. At 0.005%, the maximum IOP decrease from baseline was 6.6 mmHg (35%) at 78 h; the maximum OSH score was 1.75 at 74 h. This compound was also tested in laser-induced hypertensive monkeys, using one single day dose. At 0.01%, the maximum IOP decrease from baseline was 20.2 mmHg (53%) at 24 h.

[2] = test system: normotensive dogs; test: Intraocular pressure in normotensive dogs; format: in vivo; details: Canis lupus familiaris, topical, 120 h, once daily for 5 days, read-out: maximum IOP decrease from baseline (percent)
Description: as §1

[3] = target: T1, hEP2 (Homo sapiens, UniProt P43116); test: hEP2 cAMP functional assay; format: cell-based
Excerpt: (§2) U.S. patent application Ser. No. 11/553,143, filed on Oct. 26, 2006, describes the methods used to obtain the in vitro data in the table below.

[4] = target: T1, hEP2; test: hEP2 flipr functional assay; format: cell-based
Excerpt: as §2

[5] = target: T2, hEP4 (Homo sapiens, UniProt P35408); test: hEP4 flipr functional assay; format: cell-based
Excerpt: as §2

[6] = target: T1, hEP2; test: hEP2 binding (Ki)
Excerpt: as §2

[7] = target: T2, hEP4; test: hEP4 binding (Ki)
Excerpt: as §2

[8] = target: T3, hEP3 (Homo sapiens, UniProt P43115); test: Other receptors: hEP3 / hEP3A; format: cell-based
T3 sequence (P43115 1-390): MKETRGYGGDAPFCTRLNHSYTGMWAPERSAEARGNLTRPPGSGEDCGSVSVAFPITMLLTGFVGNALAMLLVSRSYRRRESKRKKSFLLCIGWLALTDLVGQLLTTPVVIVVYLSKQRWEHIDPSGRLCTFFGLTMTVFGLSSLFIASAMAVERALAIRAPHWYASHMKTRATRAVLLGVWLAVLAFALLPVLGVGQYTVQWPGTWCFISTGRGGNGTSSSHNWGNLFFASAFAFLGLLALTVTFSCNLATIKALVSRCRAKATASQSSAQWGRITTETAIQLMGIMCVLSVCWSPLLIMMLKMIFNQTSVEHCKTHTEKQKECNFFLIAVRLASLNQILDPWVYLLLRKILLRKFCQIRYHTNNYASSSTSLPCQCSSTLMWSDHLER
Excerpt: as §2

[9] = the 2nd table, read-out: hEP2 cAMP EC50
[10] = the 2nd table, read-out: hEP2 flipr EC50
[11] = the 2nd table, read-out: hEP4 flipr EC50
[12] = the 2nd table, read-out: hEP2 Ki
[13] = the 2nd table, read-out: hEP4 Ki
[14] = the 3rd table, read-out: EP2 data cAMP EC50
[15] = the 3rd table, read-out: EP2 data flipr EC50
[16] = the 3rd table, read-out: EP4 data flipr EC50
[17] = the 3rd table, read-out: EP2 data Ki
[18] = the 3rd table, read-out: EP4 data KI

T1 sequence (P43116 whole entry): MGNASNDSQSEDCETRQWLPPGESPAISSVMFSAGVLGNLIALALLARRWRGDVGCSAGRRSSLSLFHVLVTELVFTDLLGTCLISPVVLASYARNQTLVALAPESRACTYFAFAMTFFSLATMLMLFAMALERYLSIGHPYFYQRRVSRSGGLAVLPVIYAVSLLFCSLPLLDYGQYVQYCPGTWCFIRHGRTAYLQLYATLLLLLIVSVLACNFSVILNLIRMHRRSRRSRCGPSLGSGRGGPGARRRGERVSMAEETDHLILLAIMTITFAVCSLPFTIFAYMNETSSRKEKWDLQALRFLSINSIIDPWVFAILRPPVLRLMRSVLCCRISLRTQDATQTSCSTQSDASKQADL
T2 sequence (P35408 whole entry): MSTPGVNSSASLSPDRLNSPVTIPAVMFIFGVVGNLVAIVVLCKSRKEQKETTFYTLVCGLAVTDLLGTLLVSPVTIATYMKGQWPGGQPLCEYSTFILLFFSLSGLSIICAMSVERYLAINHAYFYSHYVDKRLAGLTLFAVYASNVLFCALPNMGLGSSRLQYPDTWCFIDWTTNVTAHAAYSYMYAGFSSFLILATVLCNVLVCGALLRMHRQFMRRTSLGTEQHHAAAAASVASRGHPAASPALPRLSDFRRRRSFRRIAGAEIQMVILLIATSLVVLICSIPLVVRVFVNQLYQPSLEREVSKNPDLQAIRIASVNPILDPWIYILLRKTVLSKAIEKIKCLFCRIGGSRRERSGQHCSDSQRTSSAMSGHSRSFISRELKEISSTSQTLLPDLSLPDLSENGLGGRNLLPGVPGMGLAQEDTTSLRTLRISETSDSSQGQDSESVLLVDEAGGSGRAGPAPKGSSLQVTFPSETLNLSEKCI

| EC50 [3, 9] | EC50 [4, 10] | EC50 [5, 11] | Ki [6, 12] | Ki [7, 13] | Compound | other results |
| --- | --- | --- | --- | --- | --- | --- |
| 0.26 nM | 3280 nM | > 10000 nM | 3 nM | – | O=C(O)c1ccc(CCC[C@@H]2[C@@H](COc3cc(Cl)cc(CO)c3)[C@H](O)C[C@H]2Cl)s1 [drawing 36, 5-{3-[(1R,2S,3R,5R)-5-Chloro-2-(3-chloro-5-hydroxymethyl-phenoxymethyl)-3-hydroxy-cyclopentyl]-propyl}-thiophene-2-carboxylic acid] | – |
| 0.2 nM | 31 nM | 2940 nM | 2 nM | 158 nM | Cc1cc(C)cc(OC[C@@H]2[C@@H](CCCc3ccc(C(=O)O)s3)[C@H](Cl)C[C@H]2O)c1 [drawing 37, 5-{3-[(1R,2S,3R,5R)-5-Chloro-2-(3,5-dimethyl-phenoxymethyl)-3-hydroxy-cyclopentyl]-propyl}-thiophene-2-carboxylic acid] | – |
| 0.7 nM | 83 nM | > 10000 nM | 8 nM | 310 nM | O=C(O)c1ccc(CCC[C@@H]2[C@@H](COc3cc(Cl)cc(Cl)c3)[C@H](O)C[C@H]2F)s1 [5-{3-[(1R,2S,3R,5R)-2-(3,5-Dichloro-phenoxymethyl)-5-fluoro-3-hydroxy-cyclopentyl]-propyl}-thiophene-2-carboxylic acid] | – |
| 0.12 nM | 7010 nM | > 10000 nM | 2 nM | 366 nM | O=C(O)c1ccc(CCC[C@@H]2[C@@H](COc3cc(Cl)cc(Cl)c3)[C@H](O)C[C@H]2Cl)s1 [drawing 35, 5-{3-[(1R,2S,3R,5R)-5-Chloro-2-(3,5-dichloro-phenoxymethyl)-3-hydroxy-cyclopentyl]-propyl}-thiophene-2-carboxylic acid] | – |
| 0.2 nM | 15 nM | > 10000 nM | 3 nM | 149 nM | N#C[C@@H]1C[C@@H](O)[C@H](COc2cc(Cl)cc(Cl)c2)[C@H]1CCCc1ccc(C(=O)O)s1 [drawing 40, 5-{3-[(1S,2S,3R,5R)-5-Cyano-2-(3,5-dichloro-phenoxymethyl)-3-hydroxy-cyclopentyl]-propyl}-thiophene-2-carboxylic acid] | – |

Further lines, the compound ahead of its results:

| Compound | EC50 [3, 9] | EC50 [4, 10] | EC50 [5, 11] | Ki [6, 12] | Ki [7, 13] | other results |
| --- | --- | --- | --- | --- | --- | --- |
| Cc1cc(C)cc(OC[C@@H]2[C@@H](CCCc3ccc(C(=O)O)s3)[C@H](Cl)C[C@H]2O)c1 [Example 6, 5-{3-[(1R,2S,3R,5R)-5-Chloro-2-(3,5-dimethyl-phenoxymethyl)-3-hydroxy-cyclopentyl]-propyl}-thiophene-2-carboxylic acid] | – | – | – | – | – | maximum ocular surface hyperemia (OSH) score ([1]; 0.01%): 1.9; inhibition in vivo at 0.01 % [2]: 33% |
| O=C(O)c1ccc(CCC[C@@H]2[C@@H](COc3cc(Cl)cc(CO)c3)CC[C@H]2Cl)s1 [5-{3-[(1R,2R,5S)-2-Chloro-5-(3-chloro-5-hydroxymethyl-phenoxymethyl)-cyclopentyl]-propyl}-thiophene-2-carboxylic acid] | 5.2 nM | 6750 nM | > 10000 nM | 12 nM | 197 nM | – |
| CC(=O)OCCc1cc(Cl)cc(OC[C@@H]2[C@@H](C/C=C\CCCC(=O)O)[C@H](Cl)C[C@H]2O)c1 [(Z)-7-{(1R,2S,3R,5R)-2-[3-(2-Acetoxy-ethyl)-5-chloro-phenoxymethyl]-5-chloro-3-hydroxy-cyclopentyl}-hept-5-enoic acid] | 18 nM | 4990 nM | – | 82 nM | – | – |
| N#C[C@@H]1C[C@@H](O)[C@H](COc2cc(Cl)cc(Cl)c2)[C@H]1CCCc1ccc(C(=O)O)s1 [Example 9, 5-{3-[(1S,2S,3R,5R)-5-Cyano-2-(3,5-dichloro-phenoxymethyl)-3-hydroxy-cyclopentyl]-propyl}-thiophene-2-carboxylic acid] | – | – | – | – | – | maximum ocular surface hyperemia (OSH) score ([1]; 0.01%): 1.2; inhibition in vivo at 0.01 % [2]: 17% |
| O=C(O)c1ccc(CCC[C@@H]2[C@@H](COc3ccc4ccccc4c3)[C@H](O)C[C@H]2Cl)s1 [5-(3-((1R,2S,3R,5R)-5-chloro-3-hydroxy-2-((naphthalen-2-yloxy)methyl)cyclopentyl)propyl)thiophene-2-carboxylic acid] | – | – | – | – | – | EC50 [3, 14]: 3 nM; EC50 [4, 15]: > 10000 nM; EC50 [5, 16]: > 10000 nM; Ki [6, 17]: 3 nM; Ki [7, 18]: 227 nM |
| O=C(O)CCC/C=C\C[C@@H]1[C@@H](COc2cc(Cl)cc(Cl)c2)[C@H](O)C[C@H]1Cl [(Z)-7-[(1R,2S,3R,5R)-5-Chloro-2-(3,5-dichloro-phenoxymethyl)-3-hydroxy-cyclopentyl]-hept-5-enoic acid] | – | – | – | – | – | maximum ocular surface hyperemia (OSH) score ([1]; 0.05%): 0.6; maximum ocular surface hyperemia (OSH) score ([1]; 0.1%): 1.3 |
| CCc1cc(OC[C@@H]2[C@@H](CCCc3ccc(C(=O)O)s3)[C@H](Cl)C[C@H]2O)ccc1Cl [5-(3-((1R,2S,3R,5R)-5-chloro-2-((4-chloro-3-ethylphenoxy)methyl)-3-hydroxycyclopentyl)propyl)thiophene-2-carboxylic acid] | – | – | – | – | – | EC50 [3, 14]: 0.4 nM; EC50 [4, 15]: 31400 nM; EC50 [5, 16]: 26500 nM; Ki [6, 17]: 2 nM; Ki [7, 18]: 177 nM |
| O=C(O)c1ccc(CCC[C@@H]2[C@@H](COc3ccc4c(c3)CCCC4)[C@H](O)C[C@H]2Cl)s1 [5-(3-((1R,2S,3R,5R)-5-chloro-3-hydroxy-2-((5,6,7,8-tetrahydronaphthalen-2-yloxy)methyl)cyclopentyl)propyl)thiophene-2-carboxylic acid] | – | – | – | – | – | EC50 [3, 14]: 12 nM; EC50 [4, 15]: 2490 nM; EC50 [5, 16]: > 10000 nM; Ki [6, 17]: 38 nM; Ki [7, 18]: 800 nM |
| O=C(O)c1ccc(CCC[C@H]2C(=O)CC[C@@H]2COc2cc(Cl)cc(CO)c2)s1 [5-{3-[(1R,2S)-2-(3-Chloro-5-hydroxymethyl-phenoxymethyl)-5-oxo-cyclopentyl]-propyl}-thiophene-2-carboxylic acid] | 2 nM | 297 nM | > 10000 nM | 39 nM | 179 nM | – |
| CC(C)OC(=O)c1ccc(CCC[C@@H]2[C@@H](COc3cc(Cl)cc(CO)c3)[C@H](O)C[C@H]2Cl)s1 [Example 14, Isopropyl 5-{3-[(1R,2S,3R,5R)-5-Chloro-2-(3-chloro-5-hydroxymethyl-phenoxymethyl)-3-hydroxy-cyclopentyl]-propyl}-thiophene-2-carboxylate] | – | – | – | – | – | maximum ocular surface hyperemia (OSH) score ([1]; 0.1%): 1.9; inhibition in vivo at 0.1 % [2]: 36% |
| CCCCCCCc1ccc(OC[C@@H]2[C@@H](CCCc3ccc(C(=O)O)s3)[C@H](Cl)C[C@H]2O)cc1 [5-(3-((1R,2S,3R,5R)-5-chloro-2-((4-heptylphenoxy)methyl)-3-hydroxycyclopentyl)propyl)thiophene-2-carboxylic acid] | – | – | – | – | – | EC50 [3, 14]: 46 nM; EC50 [4, 15]: 6820 nM; EC50 [5, 16]: > 10000 nM; Ki [6, 17]: 378 nM; Ki [7, 18]: 4520 nM |
| O=C(O)CCC/C=C\C[C@@H]1[C@@H](COc2cc(Cl)cc(Cl)c2)[C@H](O)C[C@H]1Cl [drawing 43, (Z)-7-[(1R,2S,3R,5R)-5-Chloro-2-(3,5-dichloro-phenoxymethyl)-3-hydroxy-cyclopentyl]-hept-5-enoic acid] | – | – | – | – | – | EC50 ([8]; the 2nd table, read-out: Other Receptors hEP3): 1260 nM |
| O=C(O)c1ccc(CCC[C@@H]2[C@@H](COc3cc(Cl)cc(CO)c3)[C@H](O)C[C@H]2Cl)s1 [Example 5, 5-{3-[(1R,2S,3R,5R)-5-Chloro-2-(3-chloro-5-hydroxymethyl-phenoxymethyl)-3-hydroxy-cyclopentyl]-propyl}-thiophene-2-carboxylic acid] | – | – | – | – | – | maximum ocular surface hyperemia (OSH) score ([1]; 0.1%): 1.9; inhibition in vivo at 0.1 % [2]: 34% |
| O=C(O)c1ccc(CCC[C@@H]2[C@@H](COc3cc(F)cc(C(F)(F)F)c3)[C@H](O)C[C@H]2Cl)s1 [5-(3-((1R,2S,3R,5R)-5-chloro-2-((3-fluoro-5-(trifluoromethyl)phenoxy)methyl)-3-hydroxycyclopentyl)propyl)thiophene-2-carboxylic acid] | – | – | – | – | – | EC50 [3, 14]: 0.2 nM; EC50 ([8]; the 3rd table, read-out: Other Receptors (ED50 in nM) hEP3A): 6820 nM; EC50 [4, 15]: 1150 nM; EC50 [5, 16]: 12300 nM; Ki [6, 17]: 2.4 nM; Ki [7, 18]: 354 nM |
